Experimental data taken from US9101567B2, “Suppression of cancer growth and metastasis using nordihydroguaiaretic acid derivatives with 7-hydroxystaurosporine” (The Johns Hopkins University, priority 2010, dated 2015).
Where “and” joins values, the source holds several entries; their conditions need not be identical. Equal values may be shown once.

Assays:
caspase-3 and 9 = assay: Western blotting of cleaved caspase-3 and 9 in LNCaP cells; format: cell-based, human; conditions: 17 hrs, M4N 80 μM, etoposide 10 μM, rapamycin 10 μM, UCN-01 2 μM
Protocol: (§1) The sample volumes were adjusted by the total protein amount. Protein assay was performed by Bio-Rad Protein Assay (Bio-Rad Laboratories, Inc. Hercules, Calif.). The samples were resolved by the standard SDS-polyacrylamide gel electrophoresis and transferred to nitrocellulose membrane (Amersham Biosciences, Bjorkgatan, Sweden). The membranes were blocked with skim milk, and incubated with primary antibodies at 4° C. overnight and then with secondary antibody conjugated with horse radish peroxidase at room temperature for 2 hrs. The signals were detected by western blot chemiluminescence reagent plus (New England Nuclear Life Science Products, Boston, Mass.).
(§2) The efficacy of the combination treatment of M4N with three anticancer drugs, etoposide, rapamycin, and UCN-01 to induce cell death was examined for LNCaP human prostate cancer cells with TUNEL assay. We chose these anticancer drugs trying to diversify the mechanisms in which the anticancer drugs work (43-45). […] Additionally the effect of caspase-3 and 7 inhibitor, zDEVD-fmk on the cell death induced by the combination treatment was examined (FIG. 1E).

caspase-7 [1] = assay: Western blotting of caspase-7 cleavage in LNCaP cells; format: cell-based, human; conditions: 17 hrs, M4N 80 μM, etoposide 10 μM, rapamycin 10 μM, UCN-01 2 μM
Protocol: as §1, §2

caspase-7 [2] = assay: Enzymatic assay for caspase-7 in extracts of treated LNCaP cells; format: cell-based, human; conditions: extracts of LNCaP cells treated for 13 hrs
Protocol: The enzymatic assay specific for caspase-7 was performed using a CaspSELECT caspase-7 immunoassay kit (BioVision, Mountain View, Calif.). This assay is based on the […] assay with DEVD-afc. Since DEVD-afc can be a substrate for either caspase-3 or 7, only caspase-7 is selected from cell extracts by anti-caspase-7 antibody which is coated on microtiter plates. Briefly the microtiter plates were coated with anti-caspase-7 antibody overnight at 4 C and blocked with a blocking solution for 30 minutes at room temperature. The cell extracts were applied to the microtiter plates. After washing the microtiter plates, the substrate […] was added to the plates and incubated for about three hours. The fluorescence was measured by a microtiter plate fluorescence reader Infinite 200 (Tecan, Switzerland).
as §2

[3] = test system: OC24 human ovarian cancer cells; assay: OC24 ovarian cancer-bearing nude mice: survival, ascites fluid, abdominal tumors; format: in vivo, nude mice (nu/nu); conditions: for survival rate at 45 days after treatment: OC24 tumor-bearing nude mice, i.v. 1 mg M4N and/or 88.4 μg UCN-01 per shot; for Tumor Weight: abdominal tumors of individual OC24 tumor-bearing mice; for Tumor Weight / Weight of the Ascites Fluid: at the time of death; for Weight of the Ascites Fluid: individual OC24 tumor-bearing mice, data compiled at 45 days after tumor inoculation
Protocol: (§3) T-cell deficient male nude mice (nu/nu) were obtained from Charles River Laboratories (Wilmington, Mass.). […] For drug combinations (M4N/etoposide, M4N/rapamycin, and M4N/UCN-01), etoposide, rapamycin, or UCN-01 powder was further added to M4N in CPE 25/30 to make a final concentration of M4N (10 mg/ml) respectively with etoposide (4 mg/ml), rapamycin (3.75 mg/ml), or UCN-01 ([…]) in CPE 25/30 formulation. These drugs were intravenously injected into the tail vein of mice at the daily dose of 0.1 ml per mouse. Therefore dosages of each injection were 1 mg/shot (for M4N), 0.4 mg/shot (for etoposide), 0.375 mg/shot (for rapamycin), and 88.4 μg/shot (for UCN-01). The drug injections were performed once every day; beginning at day 3 until day 31 after tumor inoculation for the combination treatment with either etoposide or rapamycin and until day 25 after tumor inoculation for the combination treatment with UCN-01. After this the drugs were injected once a week for etoposide/rapamycin combination treatment and once every three days until day 35 for UCN-01 combination treatment. Protocols used in this study were approved by the Institutional Animal Care and Use Committee at the Johns Hopkins University, Department of Biology.
(§4) OC24 cells growing subconfluently were collected into the tissue culture medium without fetal bovine serum and antibiotics. The cell concentration was adjusted by the same medium. The cell solution containing 5×10^4 cells was injected into the peritoneal cavity of each nude mouse at the day 0. The drug treatment started from day 3. For the estimation of the effect of the drug treatment, the volume of ascites fluids and of abdominal tumors was measured.
Next we examined if this combination treatment could improve the anticancer efficacy of M4N in animal experiments. In this experiment we used OC24 ovarian cancer-bearing nude mice as a model system. OC24 cells are very aggressive cancers and have the ability to kill essentially all the mice when only ten thousand cancer cells are inoculated intraperitoneally into a mouse. […] All the mice without any treatments died in less than 26 days after the tumor inoculation. Meanwhile certain percentages of the mice survived in the all treatment groups (M4N alone, UCN-01 alone, or M4N/UCN-01 combination) beyond 45 days after treatment (the time of preparation of the current manuscript). The survival rate at 45 days after treatment was 33%, 20%, and 42% for M4N alone, UCN-01 alone, or M4N/UCN-01 combination group respectively.
To further evaluate the anticancer efficacy of M4N/UCN-01 combination treatment, we next measured the volume of the ascites fluid and that of abdominal tumors. The ascites fluid was collected from the peritoneal cavity at the time of death of tumor-bearing mice. Abdominal tumors are usually located in the vicinity of the area where the tumors were inoculated by the needle. […] The data was compiled at 45 days after tumor inoculation. Therefore there were still several mice who still survived from tumor burden.

[4] = Body weight change in OC24 tumor-bearing mice; format: in vivo, nude mice (nu/nu); conditions: individual mice
Protocol: as §3, §4
Once the ascites fluid starts to accumulate in the peritoneal cavity, it sometimes constitutes a significant portion of the body weight.
The increase of the body weight of deceased mice at the time of the death over the initial weight was 37.8% (SD=18.9%, N=19) while the increase of the body weight of alive mice at days after tumor inoculation over the initial weight was 9.5% (SD=7.5%, N=6). The difference of two groups is statistically significant by t-test (0.2%). […] Therefore the body weight change can be used as an indicator to estimate the volume of ascites and thus overall condition of the mice. […] The body weight increased slightly after day 26. However it hasn't reached the peak weight achieved at day 22 (30.5 g). […] The pictures show the apparent decrease of the volume of abdominal area from day 22 to day 29 through day 26. This almost certainly indicated the reduction of ascites fluid. […] The observations depicted in FIGS. 8 B and 8C indicate that the combination treatment of M4N with UCN-01 can suppress tumor burden even after the tumor size has already reached to a certain extent. Discussion

## COc1ccc(C[C@@H](C)[C@@H](C)Cc2ccc(OC)c(OC)c2)cc1OC [M4N, Tetra-O-methyl nordihyroguaiaretic acid]
caspase-3 and 9
  expression of cleaved caspase-3 and 9: didn't induce the cleavage
caspase-7 [1]
  caspase-7 cleavage products (20 and 34 kDa): small amount
caspase-7 [2]
  caspase-7 activation (enzymatic activity): only a small amount
[3]
  survival rate at 45 days after treatment: 33%
  Tumor Weight: 101.3 mg and <100 mg and 360.5 mg and 69 mg
  Weight of the Ascites Fluid: 4.4 g and Living (2×) and 7.8 g and 5.8 g and 16.1 g
[4]; Day No. 0 (10-Dec)
  Body weight: 24.1 grams and 22.9 grams and 23.5 grams and 22.3 grams and 20 grams and 21.4 grams
[4]; Day No. 2 (12-Dec)
  Body weight: 22.3 grams and 20.8 grams and 22.9 grams and 21.5 grams and 19.1 grams and 20.9 grams
[4]; Day No. 3 (13-Dec)
  Body weight: 22.8 grams and 21.2 grams and 23.4 grams and 20.9 grams and 20.2 grams and 20.5 grams
[4]; Day No. 8 (18-Dec)
  Body weight: 30.1 grams and 25.8 (31st Dec) grams
[4]; Day No. 12 (22-Dec)
  Body weight: 23.9 grams and 21.9 grams and 27.7 grams (2×) and 29.8 (Euthanized on 1st Jan) grams
[4]; Day No. 22 (1-Jan)
  Body weight: 23.2 grams and 21.5 grams and 28 grams and 38.8 grams
[4]; Day No. 26 (5-Jan)
  Body weight: 24.1 grams and 22.5 grams and 28.1 grams
[4]; Day No. 29 (8-Jan)
  Body weight: 26.2 grams and 22.7 grams
[4]; Day No. 32 (11-Jan)
  Body weight: 25.5 grams and 22.5 grams
[4]; Day No. 33 (12-Jan)
  Body weight: 25.3 grams and 23.1 grams
[4]; Day No. 34 (13-Jan)
  Body weight: 25.3 grams and 22.9 grams
[4]; Day No. 35 (14-Jan)
  Body weight: 24.8 grams and 22 grams
[4]; Day No. 36 (15-Jan)
  Body weight: 25.7 grams and 22.4 grams
[4]; Day No. 37 (16-Jan)
  Body weight: 25.8 grams and 22.6 grams
[4]; Day No. 38 (17-Jan)
  Body weight: 25.9 grams and 22.9 grams
[4]; Day No. 39 (18-Jan)
  Body weight: 26.3 grams and 22.7 grams
[4]; Day No. 40 (19-Jan)
  Body weight: 26.4 grams and 22.9 grams
[4]; Day No. 41 (20-Jan)
  Body weight: 26.4 grams and 23.1 grams
[4]; Day No. 42 (21-Jan)
  Body weight: 25.3 grams and 23.2 grams
[4]; column head Day No. 25 (4-Jan)
  Body weight: 37.5 grams
[4]; column head Day No. 28 (7-Jan)
  Body weight: 27.9 grams

## CN[C@@H]1C[C@H]2O[C@@](C)([C@@H]1OC)n1c3ccccc3c3c4c(c5c6ccccc6n2c5c31)C(=O)N[C@H]4O [UCN-01, 7-hydroxystaurosporine]
caspase-3 and 9
  expression of cleaved caspase-3 and 9: great expression
caspase-7 [1]
  caspase-7 cleavage products (20 and 34 kDa): great amount
caspase-7 [2]
  caspase-7 activation (enzymatic activity): to some extent
[3]
  survival rate at 45 days after treatment: 20%
  Tumor Weight: No Tumor (2×) and 360.5 mg and 87 mg
  Weight of the Ascites Fluid: 7.4 g and 15 g and Living and 14.3 g and 2.9 g
[4]; Day No. 0 (10-Dec)
  Body weight: 22.8 grams and 22.1 grams and 23.4 grams and 21.6 grams and 19.6 grams and 20.6 grams
[4]; Day No. 2 (12-Dec)
  Body weight: 22.6 grams (2×) and 18.3 grams and 20.8 grams
[4]; Day No. 3 (13-Dec)
  Body weight: 23.4 grams and 21.8 grams and 35.7 grams and 30.5 grams and 22.9 grams and 21.9 Died due to injection & not the tumor (28th Dec) grams
[4]; Day No. 8 (18-Dec)
  Body weight: 39.5 grams and 35.9 grams and 26.2 grams
[4]; Day No. 12 (22-Dec)
  Body weight: 24.4 grams and 30.7 grams and 38.4 (6th Jan) grams and 27.3 grams
[4]; Day No. 22 (1-Jan)
  Body weight: 24.8 grams and 29.5 grams
[4]; Day No. 26 (5-Jan)
  Body weight: 25.5 grams
[4]; Day No. 29 (8-Jan)
  Body weight: 27.9 grams
[4]; Day No. 32 (11-Jan)
  Body weight: 27.6 grams
[4]; Day No. 33 (12-Jan)
  Body weight: 27.4 grams
[4]; Day No. 34 (13-Jan)
  Body weight: 27.5 grams
[4]; Day No. 35 (14-Jan)
  Body weight: 26.5 grams
[4]; Day No. 36 (15-Jan)
  Body weight: 27.2 grams
[4]; Day No. 37 (16-Jan)
  Body weight: 27.3 grams
[4]; Day No. 38 (17-Jan)
  Body weight: 27.1 grams
[4]; Day No. 39 (18-Jan)
  Body weight: 27.4 grams
[4]; Day No. 40 (19-Jan)
  Body weight: 27.4 grams
[4]; Day No. 41 (20-Jan)
  Body weight: 27.8 grams
[4]; Day No. 42 (21-Jan)
  Body weight: 26.7 grams
[4]; column head Day No. 18 (28-Dec)
  Body weight: 22.5 grams
